Consider 12 compounds from patent US20250188061A1, “NOVEL DEUTERATED PYRIMIDIN-2-YL SULFONAMIDE DERIVATIVES” (Hoffmann-La Roche Inc., priority 2022, published 2025).

The target of the assay is human GPR17 short isoform (Homo sapiens, UniProt Q13304). Put plainly: GPR17 cAMP assay (hGPR17 cAMP, antagonist mode). The following applies: CHO-K1 cells stably expressing human GPR17 short isoform; EC80 of agonist MDL29,951; forskolin 15 μM; TR-FRET cAMP. It is filed as cell-based. The text has this: Changes in intracellular cyclic adenosine monophosphate (cAMP) levels were quantified using the Nano-TRF Detection Assay kit (Roche Diagnostics, Cat. No. 05214386001). This assay allows for direct cAMP quantification in a homogeneous solution. cAMP is detected based on time-resolved fluorescence energy transfer (TR-FRET) and competitive binding of ruthenylated cAMP and endogenous cAMP to an anti-cAMP monoclonal antibody labeled with AlexaFluor-700. The Ruthenium complex serves as the FRET donor and transfers energy to AlexaFluor-700. The FRET signal is inversely proportional to the cAMP concentration.
human GPR17 short isoform, sequence (Q13304 29-367): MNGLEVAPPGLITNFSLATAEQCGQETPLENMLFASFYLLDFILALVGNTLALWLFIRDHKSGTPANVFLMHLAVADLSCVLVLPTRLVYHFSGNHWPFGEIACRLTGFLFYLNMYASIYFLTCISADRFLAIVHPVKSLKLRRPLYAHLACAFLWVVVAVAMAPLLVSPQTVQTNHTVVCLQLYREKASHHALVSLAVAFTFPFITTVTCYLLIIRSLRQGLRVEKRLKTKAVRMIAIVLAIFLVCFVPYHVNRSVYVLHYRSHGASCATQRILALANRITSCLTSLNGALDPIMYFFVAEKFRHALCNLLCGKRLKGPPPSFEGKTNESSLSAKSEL
CHO-GPR17S cells were detached with Accutase and resuspended in assay buffer consisting of Hank's Balanced Salt Solution (HBSS), 10 mM HEPES (4-(2-hydroxyethyl) piperazine-1-ethanesulfonic acid solution) and 0.1% bovine serum albumin (pH 7.4). The cells were seeded in black 384-well plates (Corning) at a density of 10,000 cells/20 μl assay buffer until the addition of compounds.
Test antagonist compounds were serially diluted in dimethyl sulfoxide (DMSO) and spotted in 384-well plates. The compounds were then diluted in HBSS buffer supplemented with an EC80 concentration of MDL29,951 (3-(2-Carboxy-4,6-dichloroindol-3-yl) propionic acid) (GPR17 agonist) plus 3-Isobutyl-1-methylxanthine (IBMX) (0.5 mM final concentration) and added to the cells at room temperature. Forskolin (15 μM final concentration) was added 5 minutes after the test compounds and the cells were incubated at room temperature for 30 minutes. The assay was stopped by adding cAMP detection mix (containing detergents for cell lysis) for 90 minutes at room temperature.
Cellular cAMP was measured using a Paradigm reader (Molecular Devices). The raw data was used to calculate the FRET signal based on the assay's P-factor as per cAMP kit instructions. The data was normalized to the maximal activity of a reference antagonist and dose response curves were fitted to the percent activity of the test compounds using a sigmoidal dose response model (Genedata Screener).
Regarding `[2H]C([2H])(F)C([2H])([2H])Oc1cnc(NS(=O)(=O)c2c[nH]c3c(F)c(Cl)ccc23)nc1OC` [Example 1, 6-chloro-7-fluoro-N-[4-methoxy-5-(1,1,2,2-tetradeuterio-2-fluoro-ethoxy)pyrimidin-2-yl]-1H-indole-3-sulfonamide], the IC50 (commonly the point on the concentration scale where inhibition reaches its midpoint) was 85 nM.
For `[2H]C([2H])(F)C([2H])([2H])Oc1c(OC)nc(NS(=O)(=O)c2c[nH]c3nc(Br)ccc23)nc1OC` [Example 2, 6-bromo-N-[4,6-dimethoxy-5-(1,1,2,2-tetradeuterio-2-fluoro-ethoxy)pyrimidin-2-yl]-1H-pyrrolo [2,3-b]pyridine-3-sulfonamide] the value was 42 nM.
`[2H]C([2H])(F)C([2H])([2H])Oc1c(OC)nc(NS(=O)(=O)c2c[nH]c3nc(Cl)ccc23)nc1OC` [Example 3, 6-chloro-N-[4,6-dimethoxy-5-(1,1,2,2-tetradeuterio-2-fluoro-ethoxy)pyrimidin-2-yl]-1H-pyrrolo[2,3-b]pyridine-3-sulfonamide] yielded an IC50 of 63 nM.
For `[2H]C([2H])(c1cnc(NS(=O)(=O)c2c[nH]c3cc(F)ccc23)nc1OC)C(F)F` [Example 4, N-[5-(1,1-dideuterio-2,2-difluoro-ethyl)-4-methoxy-pyrimidin-2-yl]-6-fluoro-1H-indole-3-sulfonamide] the value was 94 nM; for `[2H]C([2H])(c1cnc(NS(=O)(=O)c2c[nH]c3c(F)c(Cl)ccc23)nc1OC)C(F)F` [Example 5, 6-chloro-N-[5-(1,1-dideuterio-2,2-difluoro-ethyl)-4-methoxy-pyrimidin-2-yl]-7-fluoro-1H-indole-3-sulfonamide], 107 nM.
For `[2H]C([2H])(CF)Oc1cnc(NS(=O)(=O)c2c[nH]c3c(F)c(Cl)ccc23)nc1OC` [Example 6, 6-chloro-N-[5-(1,1-dideuterio-2-fluoro-ethoxy)-4-methoxy-pyrimidin-2-yl]-7-fluoro-1H-indole-3-sulfonamide] the value was 105 nM.
For `[2H]C([2H])(c1cnc(NS(=O)(=O)c2c[nH]c3cc(Cl)ccc23)nc1OC)C(F)F` [Example 7, 6-chloro-N-[5-(1,1-dideuterio-2,2-difluoro-ethyl)-4-methoxy-pyrimidin-2-yl]-1H-indole-sulfonamide] the value was 55 nM.
Consider `[2H]C([2H])(c1cnc(NS(=O)(=O)c2c[nH]c3c(F)c(Br)ccc23)nc1OC)C(F)F` [Example 8, 6-bromo-N-[5-(1,1-dideuterio-2,2-difluoro-ethyl)-4-methoxy-pyrimidin-2-yl]-7-fluoro-1H-indole-3-sulfonamide], for which the 50% inhibitory concentration (IC50) came out at 137 nM.
For `[2H]C([2H])(c1c(OC)nc(NS(=O)(=O)c2c[nH]c3nc(Br)ccc23)nc1OC)C(F)F` [Example 9, 6-bromo-N-[5-(1,1-dideuterio-2,2-difluoro-ethyl)-4,6-dimethoxy-pyrimidin-2-yl]-1H-pyrrolo[2,3-b]pyridine-3-sulfonamide] the value was 23 nM; for `[2H]C([2H])(Oc1c(OC)nc(NS(=O)(=O)c2c[nH]c3nc(Br)ccc23)nc1OC)C(F)F` [Example 10, 6-bromo-N-[5-(1,1-dideuterio-2,2-difluoro-ethoxy)-4,6-dimethoxy-pyrimidin-2-yl]-1H-pyrrolo[2,3-b]pyridine-3-sulfonamide], 81 nM; for `[2H]C([2H])(c1c(OC)nc(NS(=O)(=O)c2c[nH]c3nc(Cl)ccc23)nc1OC)C(F)F` [Example 11, 6-chloro-N-[5-(1,1-dideuterio-2,2-difluoro-ethyl)-4,6-dimethoxy-pyrimidin-2-yl]-1H-pyrrolo[2,3-b]pyridine-3-sulfanomide], 37 nM.
For `[2H]C([2H])(c1c(OC)nc(NS(=O)(=O)c2c[nH]c3nc(C)ccc23)nc1OC)C(F)F` [Example 12, N-[5-(1,1-dideuterio-2,2-difluoro-ethyl)-4,6-dimethoxy-pyrimidin-2-yl]-6-methyl-1H-pyrrolo [2,3-b]pyridine-3-sulfonamide] the value was 57 nM.
